According to patent US7109175B1, “Specific steady-state R-type CA2+ channel blockers and use thereof” (Universite de Sherbrooke, priority 2000, dated 2006):
Entries after “also recorded” stand apart in the source; their conditions may differ.

Legend:
rat paw oedema = assay: Rat paw oedema; type: in vivo; details: for des-Arg^9-bradykinin-induced paw oedema: 10 and 100 nmol/paw co-injected, rats treated with LPS
Protocol: In this experiment (N=5 to 6 animals per group), the anti-oedemagenic action of compounds MV 8608 and MV 8612 against bradykinin and several mediators which are reported to be involved in the inflammatory processes, was evaluated. The procedures used to perform these experiments have been reported elsewhere (Neves et al., 1993, Eur. J. Pharmacol. 243:213–219; Campos et al., 1995, Br. J. Pharmacol. 114:1005–1013; Campos et al., 1996, Br. J. Pharmacol. 117:793–798; Eur. J. Pharmacol. 316:227–286). […] As reported previously, in rats treated […] prior to a systemic injection of LPS, both B1 and B2 kinin selective agonists caused marked oedema formation (FIGS. 37C and D (Campos et al., 1996, supra)).

R-type Ca^2+ channel [1] = assay: Cell-attached single channel recording of R-type Ca2+ channel, human aortic VSM cell line; type: cell-based; details: for R-type channel opening (probability, duration, frequency) / R-type single channel current: 10^−7M extra-patch pipette application; for R-type single channel amplitude and probability of opening: nifedipine 10^−6M present
Protocol: Also, for the R-type Ca^2+ channel current, the effect of the compounds are tested on the R-type Ca^2+ channel amplitude, voltage dependency and probability of opening, by using the cell-attached patch clamp technique (Bkaily 1994, supra; 1996, supra) and intra and extra patch pipette application of the drug.
In another series of experiments (n=7), using the cell attached patch clamp technique (Bkaily G. 1994, supra; Bkaily G. et al., 1996, supra), the effect of 10^−7M of MV8608 on the R-type Ca^2+ channel in human aortic vascular smooth muscle cell line was tested. […] In a second series of experiments (n=3), the patch pipette solution was free of MV8608 and after recording the single channel activities at different voltages, MV8608 (final concentration of 10^−7M) was applied to the extra-patch pipette solution containing 140 mM KCl (where the rest of the cell is bathing). This experiment was designed to verify whether MV8608 crossed the cell membrane and if so, whether its effect from the internal side of the channel under the patch is the same as that when applied at the outer side thereof. […] Such a pattern of increase of probability of opening and the open duration accompanied with the sporadic decrease of the single channel current amplitude has never been observed when MV8608 was applied at the outer side of the single channel under the patch pipette.
In another series of experiments (n=7), the effect of 10^−7M of MV8612 was tested on the R-type Ca^2+ in human aortic VSM cells, using the single channel cell attached recording technique and intra and extra patch pipette application of drugs.
In one series of experiments (n=3), MV8612 (total concentration, 10^−7M) was only applied to the patch pipette. […] As for MV8608, in one series of experiments (n=4), MV8612 (10^−7M) was only applied to the extra-patch pipette, in order to verify if the compound penetrates into the cytosol and if so, how it affects the R-type Ca^2+ channel activity.

R-type Ca^2+ channel [2] = assay: Fura-2 total [Ca]i, R-type channel stimulation-induced sustained increase, pooled cell types; type: cell-based, chick, human, rabbit
Description: This sustained increase of Ca^2+ induced by depolarization of the cell membrane or hormones such as PAF, ET-1 and bradykinin is due to the increase of Ca^2+ influx through the R-type Ca^2+ channels at the sarcolemmal membrane and/or the nuclear membrane (Bkaily G., 1994, supra; 1996, supra; 1997a–d, supra). Using Ca^2+ fluorescence probes Fura-2 or Fluo-3 and 2 and three-dimension Ca^2+ imaging techniques (Bkaily G., 1994, supra; 1996, supra; 1997a–d, supra), the effect of hormones and drugs could be easily tested. These two methods are used with single cells of different types as described above.
In another series of experiments we tested the effect of MV8608 (10^−9M) on R-type Ca^2+ channels stimulation-induced sustained increase of total intracellular Ca^2+ by sustained depolarization (FIGS. 15 to 19), by PAF (10^−9M) (FIGS. 16 to 19 and 21 to 22), by ET-1 (10^−9M) (FIGS. 16 and 19) and bradykinin (BK, 10^−6M) (FIGS. 20 and 21), in embryonic chick heart cells (FIGS. 15, 16, 19 and 20), 19-week-old human fetal heart cells (FIGS. 15, 17, 18 and 20), rabbit aortic vascular smooth muscle (VSM) cells (FIGS. 20 and 21), human aortic VSM cell-line (FIG. 23) and freshly isolated (FIG. 22) as well as in freshly isolated aortic endothelial cells (FIG. 22).
Using Fura-2 [Ca]i measurement technique, in one series of experiments we tested the effect of MV8612 (10^−9M) on the stimulation of R-type Ca^2+-induced sustained increase of [Ca]i by sustained depolarization (FIGS. 26 and 27), PAF (10^−9M, FIG. 34) and ET-1 (FIGS. 33 and 34).

[3] = tested on: TTX-sensitive fast Na^+ current; assay: Whole-cell voltage clamp, TTX-sensitive fast Na+ current in heart cells; type: cell-based, chick
Protocol: Single cells of different types in culture were prepared from biopsies of human, chick and rabbit. Known and accepted methods for the isolation of fast Na^+ current, T, L and R-type Ca^2+ channels as well as delayed outward K^+ current were used (Bkaily 1994, supra).
The compounds to be tested are added to the appropriate extracellular solution after recording a stable ionic current or normal steady-state level of […]. The effect of different concentrations of compounds are tested on the different type of current and [Ca]i of the different cell types. The effect of each concentration of the compounds in function of the time of exposure are then determined. Once the steady-state effect is reached, the second concentration is added, etc.
In one series of experiments (n=5), the effect of different concentrations of MV8608 (10^−11M to 10^−7M) on the TTX-sensitive fast Na^+ current were tested using the whole-cell voltage clamp technique and experimental conditions reported elsewhere (Bkaily et al., 1988, supra; 1993, supra).
In a series of experiments (n=5), we tested the effect of another MV compound MV8612 on the TTX-sensitive fast Na^+ current (INa) of embryonic chick heart cells using the whole-cell voltage clamp technique described above.

[4] = 100 nmol/paw, rats treated 30 days prior

Question: For `C[C@]12CC[C@H](O)CC1=CC[C@@H]1[C@@H]2CC[C@]2(C)[C@H]3[C@@H]4OC[C@H]3O[C@@H](O)[C@]12O4` [MV8608, (15R, 16R, 20S)-14, 16:15,20:16,21-triepoxi-15,16-seco 14β, 17α-pregn-5-ene-3β, 15-diol], which PAF-induced paw oedema (rat paw oedema; 100 nmol/paw) is on record?
Answer: consistently inhibited

Question: And the PGE2-induced paw oedema (rat paw oedema; 100 nmol/paw)?
Answer: partially inhibited

Question: And the “substance P-induced paw oedema” value (rat paw oedema; 100 nmol/paw)?
Answer: unaffected

Question: And the bradykinin-induced paw oedema (rat paw oedema; [4])?
Answer: significantly inhibited

Question: What about the “des-Arg^9-BK-induced paw oedema” value (rat paw oedema; [4]) of the same compound?
Answer: significantly inhibited

Question: What about the carrageenan-induced paw oedema (rat paw oedema; 10 and 100 nmol/paw) of the same compound?
Answer: significantly prevented

Question: What about the dextran-induced paw oedema (rat paw oedema; 10 and 100 nmol/paw) of the same compound?
Answer: significantly prevented

Question: And the histamine-induced paw oedema (rat paw oedema; 10 and 100 nmol/paw)?
Answer: significantly prevented

Question: What about the “potentiation of paw oedema by low dose des-Arg^9-BK plus PAF” value (rat paw oedema; 10 and 100 nmol/paw) of the same compound?
Answer: prevented the potentiation

Question: And the “potentiation of paw oedema by low dose des-Arg^9-BK plus PGE2” value (rat paw oedema; 10 and 100 nmol/paw)?
Answer: prevented the potentiation

Question: And the serotonin-induced paw oedema (rat paw oedema; 10 and 100 nmol/paw)?
Answer: significantly prevented

Question: What about the “des-Arg^9-bradykinin-induced paw oedema” value (rat paw oedema) of the same compound?
Answer: dose-related inhibition

Question: What about the ovalbumin-induced paw oedema (rat paw oedema; 10 and 100 nmol/paw, actively sensitised animals) of the same compound?
Answer: inhibited significantly

Question: What about the bradykinin-induced hindpaw oedema (rat paw oedema; 10 and 100 nmol/paw, animals treated with LPS) of the same compound?
Answer: no significant effect

Question: What about the “R-type channel opening (probability, duration, frequency)” value (R-type Ca^2+ channel [1]) of the same compound?
Answer: increased the probability and duration of opening

Question: And the “R-type single channel current” value (R-type Ca^2+ channel [1])?
Answer: spontaneous decrease and release of the blockade of the single channel current

Question: And the “R-type single channel conductance” value (R-type Ca^2+ channel [1]; 10^−7M in the patch pipette)?
Answer: without affecting its single channel conductance

Question: What about the “R-type single channel amplitude and probability of opening” value (R-type Ca^2+ channel [1]; 10^−7M in the patch pipette) of the same compound?
Answer: decreased the single channel amplitude and probability of opening

Question: And the “time to complete block of sustained increase of [Ca]i” value (R-type Ca^2+ channel [2]; 10^−9M)?
Answer: 4 to 5 min

Question: And the “sustained increase of [Ca]i via activation of R-type Ca2+ channel” value (R-type Ca^2+ channel [2]; 10^−9M, sustained depolarization, ET-1 10^−9M, PAF 10^−9M, BK 10^−6M)?
Answer: completely blocked; also recorded: blockade

Question: And the “block of R-type Ca2+ channel across cell types” value (R-type Ca^2+ channel [2]; incl. MG63, FAOS-2, human VSM, endothelial cells, T-lymphocytes, platelets, AOSMC-9)?
Answer: blocked the R-type Ca^2+ channel in all cell types used

Question: What about the “effect on TTX-sensitive fast Na+ current” value ([3]; 10^−11M to 10^−7M, single heart cell, n=5) of the same compound?
Answer: no effect; also recorded: absence of the effect

Question: For `COC1CC(OC2C(C)OC(O[C@H]3CC[C@@]4(C)C(=CC[C@@H]5[C@@H]4CC[C@]4(C)[C@H]6[C@@H]7OC[C@H]6O[C@@H](O)[C@]54O7)C3)CC2OC)OC(C)C1OC1CC(OC)C(OC2CC(OC)C(OC3OC(C)C(OC(C)=O)C(OC)C3OC(C)=O)C(C)O2)C(C)O1` (stereo partly shown) [MV8612], which “oedema by bradykinin plus PAF” value (rat paw oedema; 10 nmol/paw) is on record?
Answer: did not interfere

Question: And the “oedema by low dose bradykinin plus PGE2” value (rat paw oedema; 10 nmol/paw)?
Answer: significantly inhibited

Question: And the “oedema by low dose bradykinin plus calcitonin gene related peptide” value (rat paw oedema; 10 nmol/paw)?
Answer: significantly inhibited

Question: What about the “oedema by low dose bradykinin plus prostacyclin” value (rat paw oedema; 10 nmol/paw) of the same compound?
Answer: significantly inhibited

Question: What about the PAF-mediated paw oedema (rat paw oedema; 10 and 100 nmol/paw) of the same compound?
Answer: only a minimal inhibition

Question: And the PGE2-induced paw oedema (rat paw oedema; 10 and 100 nmol/paw)?
Answer: dose-dependently inhibited

Question: And the bradykinin-induced paw oedema (rat paw oedema; 10 and 100 nmol/paw)?
Answer: significantly inhibited

Question: And the carrageenan-induced paw oedema (rat paw oedema; 10 and 100 nmol/paw)?
Answer: dose-dependently inhibited

Question: And the “substance P-mediated paw oedema” value (rat paw oedema; 10 and 100 nmol/paw)?
Answer: only a minimal inhibition

Question: And the “tyr^8-bradykinin-induced paw oedema” value (rat paw oedema; 10 and 100 nmol/paw)?
Answer: significantly inhibited

Question: And the “des-Arg^9-bradykinin-induced paw oedema” value (rat paw oedema)?
Answer: no significant effect

Question: What about the “bradykinin-induced oedema in animals treated with cyprohetadine or compound 48/80” value (rat paw oedema; intraperitoneal injection (FIG. 44)) of the same compound?
Answer: dose-related inhibition was still observed

Question: What about the “duration of inhibition of bradykinin oedema” value (rat paw oedema; subplantar) of the same compound?
Answer: at least 2 h

Question: What about the “onset of inhibition of bradykinin oedema” value (rat paw oedema; subplantar) of the same compound?
Answer: 30 min

Question: What about the “bradykinin oedema in controlateral paw treated with saline” value (rat paw oedema; systemic effect of subplantar injection) of the same compound?
Answer: significant anti-oedemagenic action

Question: And the “R-type channel opening (probability, duration, frequency)” value (R-type Ca^2+ channel [1])?
Answer: rapidly increased the R-type Ca^2+ opening frequence

Question: What about the “R-type single channel current” value (R-type Ca^2+ channel [1]) of the same compound?
Answer: small decrease in the single channel current

Question: And the “R-type single channel amplitude and probability of opening” value (R-type Ca^2+ channel [1]; 10^−7M in the patch pipette)?
Answer: significantly decreased

Question: What about the “decrease of R-type single Ca2+ channel current amplitude” value (R-type Ca^2+ channel [1]; 10^−7M via the patch pipette, n=3) of the same compound?
Answer: about 75 % of the control value

Question: And the “extent of blocking of R-type channel amplitude and probability of opening, comparison” value (R-type Ca^2+ channel [1]; intra-patch pipette, MV8612 versus MV8608)?
Answer: superior to that of MV8608

Question: And the “sustained increase of [Ca]i induced by sustained depolarization and hormones” value (R-type Ca^2+ channel [2]; 10^−9M, PAF 10^−9M, ET-1)?
Answer: significantly decreased

Question: And the “further decrease of INa amplitude” value ([3]; 10^−7M, embryonic chick heart cells)?
Answer: no further decrease

Question: And the “decrease of INa amplitude” value ([3]; 10^−8M, embryonic chick heart cells)?
Answer: 15%

Question: What about the “effect on fast Na+ current” value ([3]; 10^−9M, embryonic chick heart cells) of the same compound?
Answer: had no effect
